# According to patent publication US20230404985A1, “METHODS OF TREATING TUMORS AND CANCERS HAVING DYSREGULATED WNT SIGNALING PATHWAYS” (ICAHN SCHOOL OF MEDICINE AT MOUNT SINAI, priority 2020, published 2023):
# What was measured:
# [1] = tested on: EZH2; assay: Cellular fractionation, EZH2 localization in MYC-CTNNB1 tumor organoids; assay type: cell-based, mouse; details: WNTinib 1 μM, sorafenib 10 μM, 24 hours
# Procedure: Cells were spun down again at 500 g, 4° C., for 5 minutes in ultra-low attachment 1.5 mL Eppendorf tubes. Cells were resuspended in 100 μL of lysis buffer 1 (50 mM HEPES-KOH, pH 7.5, 140 mM NaCl, 1 mM EDTA, 10% glycerol, 0.5% NP-40, 0.25% Triton X-100, lx protease/phosphatase inhibitors) and agitated at 4° C. for 10 minutes. Lysate was spun at 1,350 g, 4° C., for 5 minutes. The supernatant was saved for the cytoplasmic fraction. The pellet was resuspended in 100 μL of lysis buffer 2 (10 mM Tris-HCl, pH 8.0, 200 mM NaCl, 1 mM EDTA, 0.5 mM EGTA, lx protease/phosphatase inhibitors) and agitated at room temperature for 10 minutes. The supernatant was saved for the nuclear fraction. The pellet was resuspended in 35 μL of lysis buffer 3 (10 mM Tris-HCl, pH 8.0, 100 mM NaCl, 1 mM EDTA, 0.5 mM EGTA, 0.1% Na-Deoxycholate, 0.5% N-lauroylsarcosine, lx protease/phosphatase inhibitors) and agitated at 4° C. for 10 minutes. 1/10 volume of 10% Triton X-100 was added to the lysate, which was spun down at 20,000 g, 4° C., for 10 minutes. Supernatant was taken for chromatin fraction. […] SDS-PAGE was performed using standard procedures.
# Next, EZH2 localization in WNTinib sensitive MYC-CTNNB1 and insensitive MYC-Tp53 tumor organoids was investigated. EZH2 localized diffusively in the MYC-CTNNB1 model but was primarily nuclear insoluble in the MYC-Tp53 model (FIG. 6E; lanes 7-9, left and right panels).
# [2] = tested on: MYC-CTNNB1 tumor organoids; assay: Combination treatment matrices in MYC-CTNNB1 tumor organoids; assay type: cell-based, mouse; details: for effect of EZH2 degradation or inhibition (MS1943, GSK343) on activity: 3 days MS1943 or GSK343, then 3 days co-treatment; for Combination Index CI with p38i SB202190: titration of SB202190; for Combination Index CI with p38i SB202190 / Combination Index CI with KIT ligand SCF / Combination Index CI with BRAFi dabrafenib: 3 days; for Combination Index CI with KIT ligand SCF: titration of SCF; for Combination Index CI with BRAFi dabrafenib: titration of dabrafenib
# Source text: FIG. 6A-6C are Volcano plots depicting phosphoproteomic (FIG. 6A), transcriptomic (FIG. 6B), and orepigenomic H3K27me3 (FIG. 6C) changes elicited by WNTinib inMYC-CTNNB1 tumor organoids (left) or MYC-Tp53 tumor organoids (right) as compared to DMSO. […] Values obtained from two biological replicates. […] Western blots measure endogenous proteins as indicated. […] Tubulin and histone H3 used as fractionation controls. […] Inset: western blot depicting depletion efficiency. Values obtained from three biological replicates [mean, SEM]. […] Tumor organoids were first treated with MS1943 or GSK343 for 3 days, followed by co-treatment with sorafenib or WNTinib for an additional 3 days. […] Combination index (CI) values were calculated for each column and averaged across each matrix.
# Tumor organoids were treated for 3 days. […] Combination index (CI) values were calculated for each column and averaged across each matrix. […] FIGS. 7G-7H show combination treatment matrices for MYC-CTNNB1 tumor organoids treated with sorafenib (right) or WNTinib (left) and the BRAF inhibitor dabrafenib (FIG. 7G), or the p38 inhibitor SB202190 (FIG. 7H). Tumor organoids were treated for 3 days. […] Combination index (CI) values were calculated for each column and averaged across each matrix. […] Values obtained from three technical replicates [mean, SEM].
# For assays in organoid lines, 96 well plates were first coated with a 50:50 solution of basal media:Matrigel (35 μL/well), which polymerized for 15 minutes at 37° C. Tumor organoids were taken out of Matrigel, broken, and washed. Tumor organoids were seeded at 1,000 cells per well and were treated the following day with serial dilutions (in the case of IC50 curves) or single doses (in the case of the initial screen) of drugs in technical triplicate. Final DMSO concentrations were kept below 0.5%. For adherent lines, cells were seeded at 5,000 cells per well in uncoated 96 well plates. […] Viability was measured three days post drug administration with either luminescence from CellTiter-Glo or absorbance at 560 and 590 nm from resazurin. Viability data was analyzed by normalizing individual drug-treated well values to DMSO-treated wells.
# [3] = tested on: MYC-lucOS; CTNNB1 mutant HCC; assay: Hydrodynamic tail vein model of CTNNB1-mutated HCC, survival; assay type: in vivo, C57/BL6 mice; details: 5 days on/2 days off
# Procedure: A sterile 0.9% NaCl solution/plasmid mix was prepared containing DNA—12 μg of pT3-EF1α-MYC-IRES-luciferase-OS (MYC-lucOS), 10 μg of pT3-N90-CTNNB1 (CTNNB1), and a 4:1 ratio of transposon to SB13 transposase-encoding plasmid. A volume equivalent to 10% of mouse body weight was injected through the tail vein using a 3 mL syringe with a 26-gauge needle (11). Animals were monitored for 6 days, and bioluminescent signal from tumors was visualized using an IVIS Spectrum system. Anesthetized mice were imaged 5 minutes after intraperitoneal injection of 100 mg/kg D-luciferin (Thermo Fisher Scientific). IVIS Living Image software was used to quantify luciferase signal, which was normalized by subtracting background signal. […] Oral drug treatment began in randomized arms seven days after plasmid injection. Kinase inhibitors were prepared as stated above, and WNTinib and sorafenib were dosed at concentrations of 20 mg/kg and 30 mg/kg, respectively. Drugs were administered following a 5 days on/2 days off treatment schedule. Body weights were recorded daily, and animals were monitored for signs of sickness, tumor palpability, and death. Sick animals were sacrificed according to the ISMMS IACUC guidelines.
# Given that tumors with dysregulated WNT signaling are associated with tumor immune exclusion and overall are refractory to treatment with immune checkpoint inhibitors, the efficacy of WNTinib was tested in combination with immunotherapy. First, a hydrodynamic tail vein mouse model of MYC-lucOS, CTNNB1 mutant HCC, which is known to be refractory to treatment with anti-PD-1 was used (Ruiz de Galarreta et al., “O-Catenin Activation Promotes Immune Escape and Resistance to Anti-PD-1 Therapy in Hepatocellular Carcinoma,” Cancer Discov. 9(8):1124-1141 (2019), which is hereby incorporated by reference in its entirety). C57/BL6 mice were randomized into treatment groups using IVIS imaging to quantify tumor size based on luminescence signal intensity. After randomization, kinase inhibitors were dissolved in 25% cremaphor:ethanol in water and administered orally (30 mg/kg sorafenib, 20 mg/kg WNTinib) beginning 7 days after injection following a 5 days on/2 days off dosing schedule. Immunotherapy (anti-PD-1) was administered via intraperitoneal injection on days 11, 13, and 15 after injection at […].
# [4] = tested on: pT367 EZH2 and pT71 ATF2; details: WNTinib 1 μM, sorafenib 10 μM; for temporal inhibition of pT367 EZH2 and pT71 ATF2: MYC-CTNNB1 organoids, SB202190 10 μM, 48 hours time course; for modulation of pT367 EZH2 in the four tumor organoid models: 48 hours
# Procedure: Tumor organoids were grown in 24 well plates and were collected in Cell Recovery Solution (Corning) after drug treatment. Tumor organoids were left to rotate at 4° C. for one hour in order to dissolve the Matrigel. Tumor organoids were spun down at 300 g at 4° C. for 5 minutes. Pellets were lysed in 2× Laemmli buffer (+4% 2-mercaptoethanol) by heating at 95° C. for 10 minutes followed by 5 seconds of sonication. SDS-PAGE was run using standard procedures.
Structure (SMILES),nuclear partitioning of EZH2 [1],pT367 EZH2 in the cytoplasm [1],"effect of EZH2 degradation or inhibition (MS1943, GSK343) on activity [2]",Combination Index CI with p38i SB202190 [2],Combination Index CI with KIT ligand SCF [2],Combination Index CI with BRAFi dabrafenib [2],survival benefit ([3]; sorafenib 30 mg/kg) [days],temporal inhibition of pT367 EZH2 and pT71 ATF2 [4],modulation of pT367 EZH2 in the four tumor organoid models [4],"remaining animals alive, time post final dosing ([3]; WNTinib 20 mg/kg)",share of treatment arm that succumbed to death ([3]; WNTinib 20 mg/kg) [%],survival benefit ([3]; WNTinib 20 mg/kg)
"CNC(=O)c1cc(Oc2ccc(NC(=O)Nc3ccc(Cl)c(C(F)(F)F)c3)cc2)ccn1 [sorafenib, reference compound]",did not impact phosphorylation or nuclear to cytoplasmic ratios of EZH2,did not impact phosphorylation,did not alter the dose response to sorafenib,this was not the case for sorafenib,only WNTinib and not sorafenib activity was antagonized,this was not the case for sorafenib,7.5,transient inhibition,induced pT367 across several organoid models,–,–,–
"CNC(=O)c1cc(Oc2ccc(NC(=O)Nc3ccc(C(F)(F)C(F)(F)F)cc3)c(F)c2)ccn1 [WNTinib, 4-(3-fluoro-4-(3-(4-(perfluoroethyl)phenyl)ureido)phenoxy)-N-methylpicolinamide]",increase in nuclear partitioning of EZH2,ablated,antagonized the activity of WNTinib,> 1,> 1,> 1,–,"delayed, but durable inhibition up to 48 hours",inhibited by WNTinib in the MYC-CTNNB1 model,over 300 days,40,significant survival benefit
